Reference: publication PMC12974487, “Inhibition of FicD-mediated AMPylation and deAMPylation by isoprenoid diphosphates” (Proceedings of the National Academy of Sciences of the …, 2026)
Numbering of substitutions follows the chain as printed.

Experiments:
[1] = target: T1, FicD^WT (Homo sapiens, UniProt Q9BVA6); parameters: method as in PMID 25435325; details: cited from earlier work
T1 construct: soluble ER luminal domain (residues 105 to 458) of wild-type human FicD; 6xHis-Sumo (N, cleaved yes); made in house; host or cells: Rosetta(DE3) E. coli
T1 sequence (Q9BVA6 105-458): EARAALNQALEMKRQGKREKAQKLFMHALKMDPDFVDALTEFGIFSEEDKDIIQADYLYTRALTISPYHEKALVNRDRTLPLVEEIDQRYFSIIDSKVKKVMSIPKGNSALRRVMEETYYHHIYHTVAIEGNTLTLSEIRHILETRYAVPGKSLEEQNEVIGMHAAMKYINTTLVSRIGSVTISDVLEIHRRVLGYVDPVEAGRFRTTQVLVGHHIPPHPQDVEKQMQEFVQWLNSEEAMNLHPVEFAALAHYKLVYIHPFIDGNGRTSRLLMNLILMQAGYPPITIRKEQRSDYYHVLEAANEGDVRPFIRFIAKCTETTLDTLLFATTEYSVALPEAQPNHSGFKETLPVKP

[2] = target: T2, FicD^R374H (Homo sapiens, UniProt Q9BVA6, R374H); assay: DSF with FicD^R374H variant; type: binding
T2 construct: Wild-type FicD (residues 105-458) and all mutants were expressed as N-terminal 6xHis-Sumo fusions; 6xHis-Sumo (N, cleaved yes); made in house; host or cells: Rosetta(DE3) E. coli
T2 sequence (Q9BVA6 105-458 R374H): T1 sequence (Q9BVA6 105-458) with R270H

[3] = target: T1, FicD^WT; assay: Total (intact) mass analysis of FicD^WT incubated with FPP; details: 50uM FPP, 5mM MgCl2
Description: To reveal the mechanism of FicD inhibition by FPP, we leveraged the FicD^E234G mutant for structural studies. We soaked FPP into crystals of the FicD^E234G variant and solved the ligand-bound structure (Fig. 5 A and B). […] The diphosphate group of FPP closely overlapped with the ADP diphosphate when superimposed with a FicD^E234G-ADP structure (Fig. 5 A, Left), and the hydrophobic isoprenyl groups of FPP overlap with the nucleoside in the active site binding pocket (Fig. 5 A, Right). The FPP diphosphate binds directly to the side chains of N369, R371, with the sidechain of D367 coordinating the Mg^2+ (Fig. 5B). These interactions mimic those observed between ADP/ATP and FicD ([26]). […] As previously noted, only GPP and FPP could bind to and inhibit FicD, but analogs of the isoprenoid-pyrophosphate metabolites (geraniol, GMP, farnesol, FMP, DMAPP, and MVAPP) could not (Fig. 2 B–D). Together, these observations indicate both the pyrophosphate head and the long isoprenoid tail of GPP/FPP contribute to the binding with FicD. […]
Intact mass analysis of proteins was performed by the UT Southwestern Proteomics Core. Intact protein samples were analyzed by LC/MS, using a Sciex X500B QTOF mass spectrometer operating in positive ion mode, coupled to an Agilent 1290 Infinity II HPLC. […]

Structure (SMILES)	Kd [1] [nM]	binding to R374H variant by DSF (melting curve shift) ([2]; absence of Mg2+)	binding to R374H variant by DSF (melting curve shift) ([2]; addition of Mg2+)	mass shift associated with putative FPP automodification [3]
Nc1ncnc2c1ncn2[C@@H]1O[C@H](COP(=O)(O)OP(=O)(O)O)[C@@H](O)[C@H]1O [ADP]	1500	–	–	–
CC(C)=CCC/C(C)=C/CC/C(C)=C/COP(=O)(O)OP(=O)(O)O [FPP, farnesyl-pyrophosphate]	–	caused shifts in the melting curves	enhanced the binding	no mass shift
